Literature values as cited in patent US6030942A, “Peptides peptide analogs peptidomimetics and other small molecules useful for inhibiting the activity of ribonucleotide reductase” (The Trustees of the University of Pennsylvania, priority 1998, dated 2000).
Square brackets hold non-standard residues; d marks the D form. Peptide text beside a SMILES is read from it. * marks the point of attachment. Asp(3,3-(CH2)4) = N[C@H](C(=O)O)C1(C(=O)O)CCCC1; Dibenzylacetyl = O=C(C(Cc1ccccc1)Cc1ccccc1)*; Leu(γ-Me)ol = CC(C)(C)C[C@@H](CO)N*; Tle = CC(C)(C)[C@H](N)C(=O)O; NMeV = CN[C@H](C(=O)O)C(C)C; Pyrrolidide = C1CCN(*)C1

Assays:
HSV type 2 = conditions: cell culture; read-out: EC50, replication of HSV type 2; cited from earlier work
HSV type 1 = conditions: cited from earlier work
HSV-1 = conditions: murine ocular model; cited from earlier work
HSV = conditions: cited from earlier work

Compound | EC50 (HSV type 2) [µM] | Combination with acyclovir in cell culture (HSV type 1; HSV types 1 and 2) | EC50 (HSV type 1; cell culture, read-out: EC50, replication of HSV type 1) [µM] | Severity of HSV-1-induced keratitis (HSV-1) | Inhibition of viral growth in cell culture (HSV)
CC(C)[C@@H](C(=O)N[C@H](C(=O)N[C@@H](CC(=O)N1CCCC1)C(=O)N[C@H](C(=O)N[C@H](CO)CC(C)(C)C)C1(C(=O)O)CCCC1)C(C)(C)C)N(C)C(=O)C(Cc1ccccc1)Cc1ccccc1 [BI-LD-1263] (Dibenzylacetyl-[NMeV][Tle]D(Pyrrolidide)[Asp(3,3-(CH2)4)]-{Leu(γ-Me)ol}) | 4 | synergistic effect | 3 | reduces the severity | 
YAGAVVNDL |  |  |  |  | did not inhibit viral growth in cell culture
